From US20020128256A1, “Methods for the treatment or prevention of inflammatory diseases characterized by abnormal cell proliferation” (priority 1997, published 2002)

Experiments:
Gardos channel [1] = biological target: T1, Gardos channel (Homo sapiens, UniProt O15554); design: host or cells: sickle erythrocytes (printed for Clotrimazole only); details: in vitro, sickle erythrocytes; cited from earlier work
Gardos channel [2] = biological target: T1, Gardos channel; design: reduces erythrocyte dehydration in patients with sickle cell disease; host or cells: erythrocytes of patients; details: oral therapy; cited from earlier work
[3] = tested on: NIH 3T3 mouse fibroblast cells; assay: Mitogenic Assay (mitogen-induced cell proliferation); format: cell-based
[4] = tested on: MM-RU human melanoma cells; details: SCID mice, daily administration; cited from earlier work
[5] = tested on: normal and cancer cell lines; details: cited from earlier work
[6] = biological target: T2, Gardos channel of erythrocytes (Homo sapiens, UniProt O15554); assay: Gardos Channel Assay; format: cell-based
T2 construct: endogenous in cells; host or cells: erythrocytes
T2 sequence (O15554 whole entry): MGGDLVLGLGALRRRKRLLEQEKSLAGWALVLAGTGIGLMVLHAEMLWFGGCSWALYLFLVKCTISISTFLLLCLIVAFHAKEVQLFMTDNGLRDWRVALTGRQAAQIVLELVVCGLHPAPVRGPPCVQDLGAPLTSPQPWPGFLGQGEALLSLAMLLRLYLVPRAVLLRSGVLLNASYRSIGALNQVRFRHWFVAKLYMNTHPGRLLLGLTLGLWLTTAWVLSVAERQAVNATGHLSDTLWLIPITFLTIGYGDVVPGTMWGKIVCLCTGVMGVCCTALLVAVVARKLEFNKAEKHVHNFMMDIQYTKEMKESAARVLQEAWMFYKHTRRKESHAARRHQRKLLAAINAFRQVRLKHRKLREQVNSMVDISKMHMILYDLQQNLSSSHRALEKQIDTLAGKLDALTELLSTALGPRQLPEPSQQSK

red cell Gardos channel = biological target: T3, red cell Gardos channel (Mus musculus, UniProt O89109); details: oral administration; cited from earlier work
T3 construct: host or cells: red cells of SAD mouse
T3 sequence (O89109 whole entry): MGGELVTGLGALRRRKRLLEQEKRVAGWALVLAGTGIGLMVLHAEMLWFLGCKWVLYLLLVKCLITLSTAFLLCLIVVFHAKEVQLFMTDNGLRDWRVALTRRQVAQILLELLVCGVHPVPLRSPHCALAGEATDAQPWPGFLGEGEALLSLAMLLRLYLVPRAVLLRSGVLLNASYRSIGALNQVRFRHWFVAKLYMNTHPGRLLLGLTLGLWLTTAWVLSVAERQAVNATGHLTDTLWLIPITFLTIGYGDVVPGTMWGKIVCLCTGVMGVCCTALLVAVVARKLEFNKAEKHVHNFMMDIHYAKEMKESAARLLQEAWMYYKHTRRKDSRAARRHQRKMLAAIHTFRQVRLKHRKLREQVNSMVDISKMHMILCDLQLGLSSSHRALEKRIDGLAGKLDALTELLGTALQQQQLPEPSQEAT

A549 = assay: SRB antiproliferative assay, A549; format: cell-based; details: A549 (Lung); 5% FCS, 5 Day Incubation; read-out: SRB assay IC50
Protocol: (§1) The antiproliferative assays described herein were performed using standard aseptic procedures and universal precautions for the use of tissues. Cells were propagated using RPMI 1640 media (Gibco) containing 2% N 5% fetal calf serum (Biowhittaker) at 37° C., 5% CO2 and 95% humidity. The cells were passaged using Trypsin (Gibco). Prior to addition of test compound, the cells were harvested, the cell number counted and seeded at 10,000 cells/well in 100 μl 5% fetal calf serum (FCS) containing RPMI medium in 96-well plates and incubated overnight at 37° C., 5% CO2 and 95% humidity.
(§2) Following incubation, the cellular protein was determined with the ulforhodamine B (SRB) assay (Skehan P et al., 1990, J. Natl. Cancer Inst. 82:1107-1112).

MCF7 = assay: SRB antiproliferative assay, MCF7; format: cell-based; details: MCF7 (Breast); 5% FCS, 5 Day Incubation; read-out: SRB assay IC50
Protocol: as §1, §2

DU-145 = assay: SRB antiproliferative assay, DU-145; format: cell-based; details: DU-145 (Prostate); 5% FCS, 5 Day Incubation; read-out: SRB assay IC50
Protocol: as §1, §2

L929 = assay: SRB assay, normal cells L929; format: cell-based, mouse; details: L929 (Normal mouse); 5% FCS, 5 Day Incubation; read-out: SRB assay IC50
Protocol: as §1, §2

HT29 = assay: SRB antiproliferative assay, HT29; format: cell-based; details: HT29 (Colon); 5% FCS, 5 Day Incubation; read-out: SRB assay IC50
Protocol: as §1, §2

SK-OV-3 = assay: SRB antiproliferative assay, SK-OV-3; format: cell-based; details: SK-OV-3 (Ovary); 5% FCS, 5 Day Incubation
Protocol: as §1, §2

MDA-MB-231 = assay: SRB antiproliferative assay, MDA-MB-231; format: cell-based; details: MDA-MB-23 (Breast); 5% FCS, 5 Day Incubation; read-out: SRB assay IC50
HCT-15 = assay: SRB antiproliferative assay, HCT-15; format: cell-based; details: HCT-15 (Colon); 5% FCS, 5 Day Incubation; read-out: SRB assay IC50
Protocol: as §1, §2

HTB174 = assay: SRB antiproliferative assay, HTB174; format: cell-based; details: HTB174 (Lung); 5% FCS, 5 Day Incubation; read-out: SRB assay IC50
Protocol: as §1, §2

U118MG = assay: SRB antiproliferative assay, U118MG; format: cell-based; details: U118MG (CNS); 5% FCS, 5 Day Incubation; read-out: SRB assay IC50
Protocol: as §1, §2

HEPG2 = assay: SRB antiproliferative assay, HEPG2; format: cell-based; details: HEPG2 (Hepatocel); 5% FCS, 5 Day Incubation; read-out: SRB assay IC50
Protocol: as §1, §2

3T3 = assay: SRB assay, normal cells 3T3; format: cell-based, mouse; details: 3T3 (Normal mouse); 5% FCS, 5 Day Incubation; read-out: SRB assay IC50
Protocol: as §1, §2

MMRU = assay: SRB antiproliferative assay, MMRU; format: cell-based, human; details: MMRU (Melanoma); 5% FCS, 5 Day Incubation; read-out: SRB assay IC50
Protocol: Cells were propagated using RPMI 1640 media (Gibco) containing 2% N 5% fetal calf serum (Biowhittaker) at 37° C., 5% CO2 and 95% humidity. The cells were passaged using Trypsin (Gibco). Prior to addition of test compound, the cells were harvested, the cell number counted and seeded at 10,000 cells/well in 100 μl 5% fetal calf serum (FCS) containing RPMI medium in 96-well plates and incubated overnight at 37° C., 5% CO2 and 95% humidity.
as §2

ACHN = assay: SRB antiproliferative assay, ACHN; format: cell-based; details: ACHN (Renal); 5% FCS, 5 Day Incubation; read-out: SRB assay IC50
Protocol: as §1, §2

HeLa = assay: SRB antiproliferative assay, HeLa; format: cell-based; details: HeLa (Cervical); 5% FCS, 5 Day Incubation; read-out: SRB assay IC50
Protocol: as §1, §2

HUVEC = assay: SRB assay, normal cells HUVEC; format: cell-based, human; details: HUVEC (Normal human); 5% FCS, 5 Day Incubation; read-out: SRB assay IC50
Protocol: as §1, §2

CaSki = assay: SRB antiproliferative assay, CaSki; format: cell-based; details: CaSki (Cervical); 5% FCS, 5 Day Incubation; read-out: SRB assay IC50
Protocol: as §1, §2

GM = assay: SRB assay, normal cells GM; format: cell-based, human; details: GM (Normal human); 5% FCS, 5 Day Incubation; read-out: SRB assay IC50
Protocol: as §1, §2

SK-MEL-28 = assay: SRB antiproliferative assay, SK-MEL-28; format: cell-based; details: SK-MEL-28 (Melanoma); 5% FCS, 5 Day Incubation; read-out: SRB assay IC50
Protocol: as §1, §2

T1 sequence (O15554 whole entry): as the sequence (O15554 whole entry) above

Compound: Clc1ccccc1C(c1ccccc1)(c1ccccc1)n1ccnc1 [Clotrimazole]
- Ca2+-activated K+ transport and cell dehydration in sickle erythrocytes (Gardos channel [1]): blocks Ca^2+-activated K^+ transport and cell dehydration in sickle erythrocytes
- Effect in patients with sickle cell disease (Gardos channel [2]): induces inhibition of the Gardos channel and reduces erythrocyte dehydration
- inhibition at 10 µM ([3]; Mus musculus, NIH3T3, measured at 10 μM compound, NIH 3T3 cells, read-out: Mitogenic Assay Inhibition (%)): 93%
- Number of lung metastases [4]: significant reduction in the number of lung metastases
- Rate of cell proliferation in vitro [5]: inhibits the rate of cell proliferation of normal and cancer cell lines in a reversible and dose-dependent manner
- inhibition at 10 µM ([6]; read-out: Gardos Channel Assay Inhibition (%)): 99.3%
- Effect on red cells in SAD mouse (red cell Gardos channel): inhibition of the red cell Gardos channel, increased red cell K^+ content, a decreased mean cell hemoglobin concentration (MCHC) and decreased cell density

Compound: 6-Chloro-3,3-di(4′-chlorophenyl)-2-N-oxime-3,3-diphenylindane [Compound 11]
- IC50 (A549): 8.8 µM
- IC50 (MCF7): 4.4 µM
- IC50 (DU-145): > 10 µM
- IC50 (L929): 8.6 µM
- IC50 (HT29): 6.8 µM
- IC50 (SK-OV-3): > 10 µM
- IC50 (MDA-MB-231): > 10 µM
- IC50 (HCT-15): 6.6 µM
- IC50 (HTB174): 5.9 µM
- IC50 ([3]; NIH 3T3 mouse fibroblast cells, mitogen-induced proliferation, read-out: Mitogenic Assay IC50): 3.4 µM
- Mitogenic Assay Inhibition (%) ([3]; measured at 10 μM compound, NIH 3T3 cells): 99.0%
- IC50 (U118MG): > 10 µM
- IC50 (HEPG2): 5.8 µM
- IC50 (3T3): > 10 µM
- IC50 (MMRU): 6.2 µM
- IC50 (ACHN): > 10 µM
- Gardos Channel Assay Inhibition (%) ([6]; measured at 10 μM compound): 50.0%
- IC50 (HeLa): 5.1 µM
- IC50 (HUVEC): 6.4 µM
- IC50 (CaSki): 7 µM
- IC50 (GM): > 10 µM
- IC50 (SK-MEL-28): 5.5 µM
